Source: patent publication US20130018033A1, “RAF INHIBITOR COMPOUNDS AND METHODS OF USE THEREOF” (ARRAY BIOPHARMA INC., priority 2009, published 2013)
Like-named read-outs stand apart in the source and are kept apart here.

Assays:
[1] = tested on: basal ERK1/2 phosphorylation in Malme-3M cells; assay: Cellular ERK 1/2 phosphorylation assay (Example A1); format: cell-based; details: Homo sapiens, 1 hour incubation, pERK normalized to total ERK, read-out: P-ERK Malme3-M IC50
Method: Inhibition of basal ERK1/2 phosphorylation was determined by the following in vitro […], which comprises incubating cells with a compound of Formula I for 1 hour and quantifying the fluorescent pERK signal on fixed cells and normalizing to total ERK signal.
Malme-3M cells were obtained from ATCC and grown in RPMI-1640 supplemented with 10% fetal bovine serum. Cells were plated in 96-well plates at 24,000 cells/well and allowed to attach for 16-20 hours at 37° C., 5% CO2. The media was removed, and DMSO-diluted compounds were added in RPMI-1640 at a final concentration of 1% DMSO. The cells were incubated with the compounds for 1 hour at 37° C., 5% CO2. The cells were washed with PBS and fixed in 3.7% formaldehyde in PBS for 15 minutes. This was followed by washing in PBS/0.05% Tween20 and permeabilizing in −20° C. 100% MeOH for 15 minutes. Cells were washed in PBS/0.05% Tween20 then blocked in Odyssey blocking buffer (LI-COR Biosciences) for 1 hour. Antibodies to phosphorylated ERK (1:400, Cell Signaling #9106, monoclonal) and total ERK (1:400, Santa Cruz Biotechnology #sc-94, polyclonal) were added to the cells and incubated 16-20 hours at 4° C. After washing with PBS/0.05% Tween20, the cells were incubated with fluorescently-labeled secondary antibodies (1:1000 goat anti-rabbit IgG-IRDye800, Rockland and 1:500 goat anti-mouse IgG-Alexa Fluor 680, Molecular Probes) for an additional hour. Cells were then washed and analyzed for fluorescence at both wavelengths using the Odyssey Infrared Imaging System (LI-COR Biosciences). Phosphorylated ERK signal was normalized to total ERK signal.

V600E full-length B-Raf = biological target: T1, V600E full-length B-Raf (Homo sapiens, UniProt P15056, V600E); assay: B-Raf IC50 assay (Example A); format: biochemical
T1 construct: 1 μM FSBA-MEK and 20 nM V600E full-length B-Raf; made in house; host or cells: Sf9 insect cells (baculovirus)
T1 sequence (P15056 whole entry V600E): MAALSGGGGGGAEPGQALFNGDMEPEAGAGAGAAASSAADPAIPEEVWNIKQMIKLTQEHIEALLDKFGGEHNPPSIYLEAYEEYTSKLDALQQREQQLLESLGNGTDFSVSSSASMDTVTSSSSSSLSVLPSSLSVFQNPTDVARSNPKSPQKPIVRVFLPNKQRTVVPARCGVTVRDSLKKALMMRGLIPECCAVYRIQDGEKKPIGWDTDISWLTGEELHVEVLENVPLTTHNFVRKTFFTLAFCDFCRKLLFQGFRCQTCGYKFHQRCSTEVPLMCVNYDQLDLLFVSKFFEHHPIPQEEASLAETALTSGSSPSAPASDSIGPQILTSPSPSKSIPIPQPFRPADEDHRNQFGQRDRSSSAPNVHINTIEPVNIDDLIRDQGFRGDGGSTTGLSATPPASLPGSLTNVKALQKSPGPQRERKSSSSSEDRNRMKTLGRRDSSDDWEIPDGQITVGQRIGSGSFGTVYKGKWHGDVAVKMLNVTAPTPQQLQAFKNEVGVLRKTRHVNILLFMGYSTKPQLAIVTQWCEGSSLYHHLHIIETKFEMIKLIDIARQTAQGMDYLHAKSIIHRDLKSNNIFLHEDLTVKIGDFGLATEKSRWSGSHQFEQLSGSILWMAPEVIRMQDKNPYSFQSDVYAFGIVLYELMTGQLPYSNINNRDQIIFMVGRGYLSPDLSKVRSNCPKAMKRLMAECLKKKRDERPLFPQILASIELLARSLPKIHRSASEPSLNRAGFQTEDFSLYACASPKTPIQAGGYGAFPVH
Text: Determining the activity of Raf in the sample is possible by a number of direct and indirect detection methods (US 2004/0082014). Activity of human recombinant B-Raf protein may be assessed in vitro by assay of the incorporation of radio labeled phosphate to recombinant MAP kinase (MEK), a known physiologic substrate of B-Raf, according to US 2004/0127496 and WO 03/022840. The activity/inhibition of V600E full-length B-Raf was estimated by measuring the incorporation of radio labeled phosphate from [γ-^33P]ATP into FSBA-modified wild-type MEK (see Example A).
Activity of human recombinant B-Raf protein may be assessed in vitro by assay of the incorporation of radio labeled phosphate to recombinant MAP kinase (MEK), a known physiologic substrate of B-Raf, according to US 2004/0127496 and WO 03/022840. Catalytically active human recombinant B-Raf protein is obtained by purification from sf9 insect cells infected with a human B-Raf recombinant baculovirus expression vector.
The activity/inhibition of V600E full-length B-Raf was estimated by measuring the incorporation of radio labeled phosphate from [γ-^33P]ATP into FSBA-modified wild-type MEK. The 30-μL assay mixtures contained 25 mM Na Pipes, pH 7.2, 100 mM KCl, 10 mM MgCl2, 5 mM β-glycerophosphate, […], 4 μM ATP, 500 nCi [γ-^33P]ATP, 1 μM FSBA-MEK and 20 nM V600E full-length B-Raf. Incubations were carried out at 22° C. in a Costar 3365 plate (Corning). Prior to the assay, the B-Raf and FSBA-MEK were preincubated together in assay buffer at 1.5×(20 μL of 30 nM and 1.5 μM, respectively) for 15 minutes, and the assay was initiated by the addition of 10 μL of 10 μM ATP. Following the 60-minute incubation, the assay mixtures were quenched by the addition of 100 μL of 25% TCA, the plate was mixed on a rotary shaker for 1 minute, and the product was captured on a Perkin-Elmer GF/B filter plate using a Tomtec Mach III Harvester. After sealing the bottom of the plate, 35 μL of Bio-Safe II (Research Products International) scintillation cocktail were added to each well and the plate was top-sealed and counted in a Topcount NXT (Packard).

[2] = B-Raf V600E assay of Example A, read-out: IC50
[3] = [γ-33P]ATP incorporation into FSBA-MEK, 4 μM ATP, read-out: BRAF V600E IC50

| Structure (SMILES) | IC50 (V600E full-length B-Raf; [2]) | IC50 (V600E full-length B-Raf; [3]) | IC50 [1] | IC50 (V600E full-length B-Raf; BRAF V600E IC50 (μM), [γ-33P]ATP incorporation into FSBA-MEK, 4 μM ATP) |
| --- | --- | --- | --- | --- |
| CCCS(=O)(=O)Nc1ccc(F)c(NC(=O)c2cccc3c(N)ncnc23)c1F [Example 1, 4-Amino-quinazoline-8-carboxylic acid [2,6-difluoro-3-(propane-1-sulfonylamino)-phenyl]-amide] | < 100 nM | – | 8.67 nM | 1.77 nM |
| CCCS(=O)(=O)Nc1cccc(NC(=O)c2cccc3c(N)ncnc23)c1F [Example 8, 4-Amino-quinazoline-8-carboxylic acid [2-fluoro-3-(propane-1-sulfonylamino)-phenyl]-amide] | < 100 nM | 10.8 nM | 32.6 nM | – |
| CCCS(=O)(=O)Nc1ccc(F)c(NC(=O)c2ccnc3c(N)ncnc23)c1Cl [Example 63, 4-Amino-pyrido[3,2-d]pyrimidine-8-carboxylic acid [2-chloro-6-fluoro-3-(propane-1-sulfonylamino)-phenyl]-amide] | < 100 nM | 1.01 nM | 7.6 nM | – |
| CCCS(=O)(=O)Nc1ccc(F)c(NC(=O)c2cccc3cncnc23)c1F [Example 54, Quinazoline-8-carboxylic acid [2,6-difluoro-3-(propane-1-sulfonylamino)-phenyl]amide] | < 1000 nM | 119 nM | 526 nM | – |
| CCCS(=O)(=O)Nc1cc(F)c(F)c(NC(=O)c2cccc3c(NN4CCOCC4)ncnc23)c1F [Example 47, 4-(Morpholin-4-ylamino)-quinazoline-8-carboxylic acid [2,3,6-trifluoro-5-(propane-1-sulfonylamino)-phenyl]-amide] | < 1000 nM | 105 nM | 1170 nM | – |
| Nc1ncnc2c(C(=O)Nc3c(F)ccc(NS(=O)(=O)N4CCCC4)c3F)cccc12 [Example 34, 4-Amino-quinazoline-8-carboxylic acid [2,6-difluoro-3-(pyrrolidine-1-sulfonylamino)-phenyl]-amide] | < 100 nM | 12.7 nM | 15.6 nM | – |
| CCCS(=O)(=O)Nc1ccc(F)c(NC(=O)c2cc(C)cc3cncnc23)c1F [Example 79, 6-Methyl-quinazoline-8-carboxylic acid [2,6-difluoro-3-(propane-1-sulfonylamino)-phenyl]-amide] | < 100 nM | 58.8 nM | 254 nM | – |
| O=C(Nc1c(F)c(F)cc(NS(=O)(=O)CCCF)c1F)c1cccc2c(NC3CC3)ncnc12 [Example 51, 4-(Cyclopropylamino)-N-(2,3,6-trifluoro-5-(3-fluoropropylsulfonamido)phenyl)quinazoline-8-carboxamide] | < 1000 nM | 143 nM | 2310 nM | – |
| CCCS(=O)(=O)Nc1ccc(Cl)c(NC(=O)c2cccc3c(N)ncnc23)c1C#N [Example 29, 4-Amino-quinazoline-8-carboxylic acid [6-chloro-2-cyano-3-(propane-1-sulfonylamino)-phenyl]-amide] | < 100 nM | 0.08 nM | 25.3 nM | – |
| Cc1ncnc2c(C(=O)Nc3c(Cl)ccc(NS(=O)(=O)CCCF)c3Cl)cccc12 [Example 60, 4-Methyl-quinazoline-8-carboxylic acid [2,6-dichloro-3-(3-fluoro-propane-1-sulfonylamino)-phenyl]-amide] | < 100 nM | 0.82 nM | 53.4 nM | – |
| CN(C)S(=O)(=O)Nc1ccc(F)c(NC(=O)c2cccc3c(N)ncnc23)c1F [Example 36, 4-Amino-N-(3-(N,N-dimethylsulfamoylamino)-2,6-difluorophenyl)quinazoline-8-carboxamide] | < 100 nM | 14.8 nM | 25.2 nM | – |
| CCS(=O)(=O)Nc1ccc(F)c(NC(=O)c2cccc3c(N)ncnc23)c1F [Example 19, 4-Amino-quinazoline-8-carboxylic acid (3-ethanesulfonyl-amino-2,6-difluoro-phenyl)-amide] | < 100 nM | 4.97 nM | 25.9 nM | – |
| CCCS(=O)(=O)Nc1ccc(F)c(NC(=O)c2cc(C)cc3c(N)ncnc23)c1Cl [Example 77, 4-Amino-6-methyl-quinazoline-8-carboxylic acid [2-chloro-6-fluoro-3-(propane-1-sulfonylamino)-phenyl]-amide] | < 100 nM | 0.45 nM | 7.83 nM | – |

Second part, led by results:

| IC50 (V600E full-length B-Raf; [2]) | IC50 (V600E full-length B-Raf; [3]) | Structure (SMILES) | IC50 [1] | IC50 (V600E full-length B-Raf; BRAF V600E IC50 (μM), [γ-33P]ATP incorporation into FSBA-MEK, 4 μM ATP) |
| --- | --- | --- | --- | --- |
| < 100 nM | 2.6 nM | Nc1ncnc2c(C(=O)Nc3c(F)ccc(NS(=O)(=O)CC4CC4)c3Cl)cccc12 [Example 16, 4-Amino-quinazoline-8-carboxylic acid (2-chloro-3-cyclopropyl-methane-sulfonylamino-6-fluoro-phenyl)-amide] | 15.2 nM | – |
| < 100 nM | 18.5 nM | CCCS(=O)(=O)Nc1ccc(C)c(NC(=O)c2cccc3c(N)ncnc23)c1 [Example 21, 4-Amino-quinazoline-8-carboxylic acid [2-methyl-5-(propane-1 sulfonylamino)-phenyl]-amide] | 1320 nM | – |
| < 100 nM | 7.5 nM | CN(C)S(=O)(=O)Nc1ccc(F)c(NC(=O)c2cccc3c(N)ncnc23)c1Cl [Example 39, 4-Amino-N-(2-chloro-3-(N,N-dimethylsulfamoylamino)-6-fluorophenyl)quinazoline-8-carboxamide] | 32.7 nM | – |
| < 100 nM | 0.31 nM | Nc1ncnc2c(C(=O)Nc3c(F)c(F)cc(NS(=O)(=O)CCCF)c3F)cccc12 [Example 26, 4-Amino-quinazoline-8-carboxylic acid [2,3,6-trifluoro-5-(3-fluoro-propane-1-sulfonylamino)-phenyl]-amide] | 10.8 nM | – |
| < 100 nM | 1.49 nM | O=C(Nc1c(Cl)ccc(NS(=O)(=O)CCCF)c1F)c1cccc2cncnc12 [Example 59, Quinazoline-8-carboxylic acid [6-chloro-2-fluoro-3-(3-fluoro-propane-1-sulfonylamino)-phenyl]-amide] | 83.7 nM | – |
| < 100 nM | 32.2 nM | O=C(Nc1c(F)ccc(NS(=O)(=O)CCCF)c1F)c1cccc2cncnc12 [Example 55, Quinazoline-8-carboxylic acid [2,6-difluoro-3-(3-fluoro-propane-1-sulfonylamino)-phenyl]-amide] | 92.8 nM | – |
| < 100 nM | 0.08 nM | CCCS(=O)(=O)Nc1cccc(NC(=O)c2cccc3c(N)ncnc23)c1C#N [Example 30, 4-Amino-quinazoline-8-carboxylic acid [2-cyano-3-(propane-1-sulfonylamino)-phenyl]-amide] | 7.1 nM | – |
| < 1000 nM | 204 nM | O=C(Nc1c(F)ccc(NS(=O)(=O)CC2CC2)c1F)c1cccc2cncnc12 [Example 56, Quinazoline-8-carboxylic acid (3-cyclopropylmethane-sulfonylamino-2,6-difluoro-phenyl)-amide] | 638 nM | – |
| < 100 nM | 0.17 nM | Nc1ncnc2c(C(=O)Nc3c(F)ccc(NS(=O)(=O)c4ccco4)c3F)cccc12 [Example 33, 4-Amino-quinazoline-8-carboxylic acid [2,6-difluoro-3-(furan-2-sulfonylamino)-phenyl]-amide] | 12.5 nM | – |
